Test results from US11883526B2 (priority 2019, dated 2024).
Like-named read-outs stand apart in the source and are kept apart here.

Tested on: subjects with MDD at imminent risk for suicide
Conditions: 84 mg
[1] = TEAE leading to study discontinuation, double-blind phase, N = 35
[2] = TEAE, double-blind phase, N = 35

## CN[C@]1(c2ccccc2Cl)CCCCC1=O [esketamine, (S)-2-(2-chlorophenyl)-2-(methylamino)cyclohexanone]
  subjects who discontinued the double-blind phase due to adverse events: 5 subjects
double-blind phase
  TEAE incidence: dissociation: 31.4%
  TEAE incidence: dizziness: 34.3%
  TEAE incidence: dysgeusia: 31.4%
  TEAE incidence: headache: 31.4%
  TEAE incidence: nausea: 37.1%
  TEAE incidence: vomiting: 20.0%
  subjects with a serious treatment-emergent adverse event: Four
  subjects with at least one TEAE: 94.3%
Follow up phase
  subjects with a serious adverse event: 1 subjects
  subjects with at least one adverse event: 48.1%
All randomized analysis set
  Withdrawn from double-blind phase: Adverse event, percent of subjects: (13.9%)
All randomized analysis set, N = 36
  Withdrawn from double-blind phase: Adverse event, number of subjects: 5
[1]
  Aggression: % of subjects: 2.9%
  Aggression: no. of subjects: 1
  Agitation: % of subjects: 2.9%
  Agitation: no. of subjects: 1
  Cardiac disorders: % of subjects: 2.9%
  Cardiac disorders: no. of subjects: 1
  Dissociative disorder: no. of subjects: 0
  Dizziness: % of subjects: 2.9%
  Dizziness: no. of subjects: 1
  Dysgeusia: % of subjects: 2.9%
  Dysgeusia: no. of subjects: 1
  Dyspnea: % of subjects: 2.9%
  Dyspnea: no. of subjects: 1
  Gastrointestinal disorders: % of subjects: 2.9%
  Gastrointestinal disorders: no. of subjects: 1
  Nausea: % of subjects: 2.9%
  Nausea: no. of subjects: 1
  Nervous system disorders: % of subjects: 5.7%
  Nervous system disorders: no. of subjects: 2
  Panic attack: no. of subjects: 0
  Psychiatric disorders: % of subjects: 5.7%
  Psychiatric disorders: no. of subjects: 2
  Respiratory, thoracic and mediastinal disorders: % of subjects: 2.9%
  Respiratory, thoracic and mediastinal disorders: no. of subjects: 1
  Total no. subjects with TEAE leading to study discontinuation: % of subjects: 14.3%
  Total no. subjects with TEAE leading to study discontinuation: no. of subjects: 5
  Ventricular extrasystoles: % of subjects: 2.9%
  Ventricular extrasystoles: no. of subjects: 1
[2]
  Abdominal pain: no. of subjects: 0
  Acne: % of subjects: (5.7%)
  Acne: no. of subjects: 2
  Agitation: % of subjects: (8.6%)
  Agitation: no. of subjects: 3
  Anxiety: % of subjects: (17.1%)
  Anxiety: no. of subjects: 6
  Blepharospasm: no. of subjects: 0
  Blood pressure increased: % of subjects: (5.7%)
  Blood pressure increased: no. of subjects: 2
  Constipation: no. of subjects: 0
  Diarrhea: % of subjects: (8.6%)
  Diarrhea: no. of subjects: 3
  Diplopia: % of subjects: (5.7%)
  Diplopia: no. of subjects: 2
  Dissociation: % of subjects: (31.4%)
  Dissociation: no. of subjects: 11
  Dizziness postural: % of subjects: (5.7%)
  Dizziness postural: no. of subjects: 2
  Dizziness: % of subjects: (34.3%)
  Dizziness: no. of subjects: 12
  Dry mouth: % of subjects: (8.6%)
  Dry mouth: no. of subjects: 3
  Dysgeusia: % of subjects: (31.4%)
  Dysgeusia: no. of subjects: 11
  Ear and labyrinth disorders: % of subjects: (25.7%)
  Ear and labyrinth disorders: no. of subjects: 9
  Epistaxis: no. of subjects: 0
  Euphoric mood: % of subjects: (11.4%)
  Euphoric mood: no. of subjects: 4
  Eye disorders: % of subjects: (20.0%)
  Eye disorders: no. of subjects: 7
  Fatigue: % of subjects: (5.7%)
  Fatigue: no. of subjects: 2
  Feeling abnormal: % of subjects: (8.6%)
  Feeling abnormal: no. of subjects: 3
  Feeling cold: % of subjects: (5.7%)
  Feeling cold: no. of subjects: 2
  Flatulence: % of subjects: (2.9%)
  Flatulence: no. of subjects: 1
  Gastrointestinal disorders: % of subjects: (54.3%)
  Gastrointestinal disorders: no. of subjects: 19
  General disorders and administration site conditions: % of subjects: (28.6%)
  General disorders and administration site conditions: no. of subjects: 10
  Headache: % of subjects: (31.4%)
  Headache: no. of subjects: 11
  Hyperacusis: % of subjects: (5.7%)
  Hyperacusis: no. of subjects: 2
  Hyperhidrosis: % of subjects: (5.7%)
  Hyperhidrosis: no. of subjects: 2
  Hypoesthesia oral: % of subjects: (5.7%)
  Hypoesthesia oral: no. of subjects: 2
  Hypoesthesia: % of subjects: (8.6%)
  Hypoesthesia: no. of subjects: 3
  Infections and infestations: % of subjects: (2.9%)
  Infections and infestations: no. of subjects: 1
  Insomnia: % of subjects: (8.6%)
  Insomnia: no. of subjects: 3
  Intranasal paranesthesia: no. of subjects: 0
  Investigations: % of subjects: (14.3%)
  Investigations: no. of subjects: 5
  Nasal congestion: % of subjects: (2.9%)
  Nasal congestion: no. of subjects: 1
  Nasal discomfort: % of subjects: (8.6%)
  Nasal discomfort: no. of subjects: 3
  Nausea: % of subjects: (37.1%)
  Nausea: no. of subjects: 13
  Nervous system disorders: % of subjects: (71.4%)
  Nervous system disorders: no. of subjects: 25
  Oropharyngeal pain: % of subjects: (5.7%)
  Oropharyngeal pain: no. of subjects: 2
  Panic attack: no. of subjects: 0
  Paresthesia oral: % of subjects: (5.7%)
  Paresthesia oral: no. of subjects: 2
  Paresthesia: % of subjects: (17.1%)
  Paresthesia: no. of subjects: 6
  Pharyngeal hypoesthesia: % of subjects: (5.7%)
  Pharyngeal hypoesthesia: no. of subjects: 2
  Pollakiuria: no. of subjects: 0
  Psychiatric disorders: % of subjects: (57.1%)
  Psychiatric disorders: no. of subjects: 20
  Rash: % of subjects: (2.9%)
  Rash: no. of subjects: 1
  Renal and urinary disorders: % of subjects: (2.9%)
  Renal and urinary disorders: no. of subjects: 1
  Respiratory, thoracic and mediastinal disorders: % of subjects: (25.7%)
  Respiratory, thoracic and mediastinal disorders: no. of subjects: 9
  Rhinalgia: no. of subjects: 0
  Rhinorrhoea: no. of subjects: 0
  Sedation: % of subjects: (17.1%)
  Sedation: no. of subjects: 6
  Skin and subcutaneous tissue disorders: % of subjects: (14.3%)
  Skin and subcutaneous tissue disorders: no. of subjects: 5
  Somnolence: % of subjects: (11.4%)
  Somnolence: no. of subjects: 4
  Suicidal ideation: % of subjects: (5.7%)
  Suicidal ideation: no. of subjects: 2
  Throat irritation: % of subjects: (8.6%)
  Throat irritation: no. of subjects: 3
  Tinnitus: % of subjects: (5.7%)
  Tinnitus: no. of subjects: 2
  Toothache: no. of subjects: 0
  Total no. subjects with TEAE: % of subjects: (94.3%)
  Total no. subjects with TEAE: no. of subjects: 33
  Upper respiratory tract infection: no. of subjects: 0
  Vertigo: % of subjects: (11.4%)
